From publication PMC7400437, “Synthesis and Evaluation of the Antibacterial Activities of 13-Substituted Berberine Derivatives” (Antibiotics, 2020)
Read-outs that look alike come from different tables or passages of the source.

How the values were obtained:
E. coli = test: MIC, antimicrobial activity assay; type: cell-based, Escherichia coli (ATCC 8739); conditions: Escherichia coli
S. pyogenes = test: MIC, antimicrobial activity assay; type: cell-based, Streptococcus pyogenes (DSM 20565); conditions: Streptococcus pyogenes; Table 4, Gram-positive; anaerobic
[1] = tested on: S.aureus (Methicillin-resistant); test: MIC, antimicrobial activity assay; type: cell-based; conditions: Staphylococcus aureus, read-out: MIC S.aureus (Methicillin-resistant)
M. smegmatis = test: microbe, parasite or virus in culture; type: cell-based, Mycobacterium smegmatis (mc2155, ATCC 700084); conditions: Mycolicibacterium smegmatis, 72 h, read-out: Minimal Inhibitory Concentration (MIC) M. smegmatis
V. diabolicus = test: MIC, antimicrobial activity assay; type: cell-based; conditions: Vibrio diabolicus; Table 4, Gram-negative
[2] = tested on: BEAS (human airway epithelial cells); test: Cytotoxic assay on human cells (resazurin); type: cell-based; conditions: Epithelial cell, 48 h, means +/−SD, read-out: Inhibitory Concentration 50 (IC50) on cell viability, BEAS
Procedure: (§1) The toxicity of berberine and berberine’s derivatives on human cells was evaluated using resazurin assay as previously described. Human cells used were BEAS (ATCC CRL-9609), Caco2 (ATCC HTB-37) and HepG2 (ATCC HB-8065) corresponding respectively to human airway epithelial cells, intestinal epithelial cells and liver cells. Cells were cultured in Dulbecco’s modified essential medium (DMEM) supplemented with 10% fetal bovine serum (FBS), 1% L-glutamine and 1% antibiotics (Thermo Fisher Scientific, Illkirch-Graffenstaden, France). Cells were routinely grown on 25 cm^2 flasks and maintained in a 5% CO2 incubator at 37 °C. For toxicity assay, cells were detached using trypsin–EDTA solution (Thermo Fisher Scientific), counted using Mallasez counting chamber and seeded into 96-well cell culture plates (Greiner bio-One, Dominique Dutscher, Brumath, France) at approximately 10,000 cells per well. The cells were left to grow for 48–72 h at 37 °C in a 5% CO2 incubator until they reached confluence. Media from wells was then aspirated and cells were treated with 100 µL of culture media containing increasing concentrations of berberine or berberine’s derivatives obtained by serial dilution (from 0 to 50 µM, 1:2 dilution), DMSO (0.5% DMSO final concentration) was used as negative control. After 48 h incubation at 37 °C in a 5% CO2 incubator, cell viability was evaluated using resazurin based in vitro toxicity assay kit (Sigma-Aldrich) following manufacturer’s instructions. Briefly, cell wells were emptied, and cells were treated with 100 µL of resazurin diluted 1:10 in sterile PBS containing calcium and magnesium (PBS^++, pH 7.4). After 4 h incubation at 37 °C, fluorescence intensity (excitation wavelength of 530 nm/emission wavelength of 590 nm) was measured using Synergy Mx microplate reader (Biotek). The fluorescence values were normalized by the controls (DMSO treated cells) and expressed as percent viability. The IC50 values of berberine and berberine’s derivatives on cell viability (i.e., the concentration of derivative causing a reduction of 50% of the cell viability) were calculated using GraphPad® Prism 7 software (San Diego, CA, USA). t-Test and two ways ANOVA analyses were used to address the significant differences between mean values with significance set at p < 0.05.

[3] = tested on: Caco2 (human intestinal epithelial cells); test: Cytotoxic assay on human cells (resazurin); type: cell-based; conditions: for IC50: Homo sapiens, Caco-2, 48 h, read-out: Inhibitory Concentration 50 (IC50) on cell viability, Caco2; for therapeutic index Caco2: IC50 on Caco2 divided by MIC on S. aureus
Procedure: as §1

[4] = tested on: HepG2 (human liver cells); test: Cytotoxic assay on human cells (resazurin); type: cell-based; conditions: HepG2, 48 h, read-out: Inhibitory Concentration 50 (IC50) on cell viability, HEPG2
Procedure: as §1

K. pneumonia = test: MIC, antimicrobial activity assay; type: cell-based, Klebsiella pneumoniae (DSMZ 26371); conditions: Klebsiella pneumoniae; Table 4, Gram-negative
[5] = tested on: B. subtilis (Nisin-resistant); test: MIC, antimicrobial activity assay; type: cell-based, nisin-resistant B. subtilis (DSMZ 347); conditions: Bacillus subtilis, read-out: MIC B. subtilis (Nisin-resistant)
[6] = tested on: P. aeruginosa (Quinolone-resistant); test: MIC, antimicrobial activity assay; type: cell-based; conditions: Pseudomonas aeruginosa, read-out: MIC P. aeruginosa (Quinolone-resistant)
A. baumannii = test: MIC, antimicrobial activity assay; type: cell-based, Acinetobacter baumannii (CIP 110431); conditions: Acinetobacter baumannii; Table 4, Gram-negative
L. lactis = test: MIC, antimicrobial activity assay; type: cell-based, Lactococcus lactis (DSM 20481); conditions: Lactococcus lactis; Table 4, Gram-positive
B. subtilis = test: MIC, antimicrobial activity assay; type: cell-based, Bacillus subtilis (ATCC 6633); conditions: Bacillus subtilis
H. pylori = test: MIC, antimicrobial activity assay; type: cell-based, Helicobacter pylori (ATCC 43504); conditions: Helicobacter pylori; Table 4, Gram-negative; microaerobic
A. gandavensis = test: MIC, antimicrobial activity assay; type: cell-based, Arthrobacter gandavensis (DSM 2447); conditions: Arthrobacter gandavensis; Table 4, Gram-positive
C. perfringens = test: microbe, parasite or virus in culture; type: cell-based, Clostridium perfringens (ATCC 13124); conditions: Clostridium perfringens, read-out: MIC C. perfringens
S. aureus = test: MIC, antimicrobial activity assay; type: cell-based, Staphylococcus aureus (ATCC 6538P); conditions: Staphylococcus aureus
[7] = tested on: E. faecalis (Vancomycin-resistant); test: MIC, antimicrobial activity assay; type: cell-based, vancomycin-resistant Enterococcus faecalis (DSMZ 13591); conditions: Enterococcus faecalis, read-out: MIC E. faecalis (Vancomycin-resistant)
V. alginolyticus = test: MIC, antimicrobial activity assay; type: cell-based, Vibrio alginolyticus (DSM 2171); conditions: Vibrio alginolyticus; Table 4, Gram-negative
P. aeruginosa = test: MIC, antimicrobial activity assay; type: cell-based, Pseudomonas aeruginosa (ATCC 9027); conditions: Pseudomonas aeruginosa
S. flexneri = test: MIC, antimicrobial activity assay; type: cell-based, Shigella flexneri (ATCC 12022); conditions: Shigella flexneri; Table 4, Gram-negative
C. rodentium = test: MIC, antimicrobial activity assay; type: cell-based, Citrobacter rodentium (ATCC 51116); conditions: Citrobacter rodentium; Table 4, Gram-negative
C. albicans = test: MIC, antifungal activity assay; type: cell-based, Candida albicans (DSM 10697); conditions: Candida albicans; Table 1 first screening; 35 °C, 24 h; read-out: Minimal Inhibitory Concentration (MIC) C. albicans
B. cereus = test: MIC, antimicrobial activity assay; type: cell-based; conditions: Bacillus cereus; Table 4, Gram-positive
C. farmer = test: MIC, antimicrobial activity assay; type: cell-based, Citrobacter farmeri (ATCC 51633); conditions: Citrobacter farmeri; Table 4, Gram-negative
S. enterica = test: MIC, antimicrobial activity assay; type: cell-based, Salmonella enterica (CIP 80.39); conditions: Salmonella enterica; Table 4, Gram-negative
C. difficile = test: MIC, antimicrobial activity assay; type: cell-based, Clostridium difficile (DSM 1296); conditions: Clostridioides difficile; Table 4, Gram-positive; anaerobic
[8] = Table 1 first screening, read-out: Minimal Inhibitory Concentration (MIC) E. coli
[9] = Table 4, Gram-negative, read-out: MIC E. coli
[10] = Table 1 first screening, read-out: Minimal Inhibitory Concentration (MIC) B. subtilis
[11] = Table 4, Gram-positive, read-out: MIC B. subtilis
[12] = Table 1 first screening, read-out: Minimal Inhibitory Concentration (MIC) S. aureus
[13] = Table 4, Gram-positive, read-out: MIC S. aureus
[14] = Table 1 first screening, read-out: Minimal Inhibitory Concentration (MIC) P. aeruginosa
[15] = Table 4, Gram-negative, read-out: MIC P. aeruginosa

Compound | MIC (E. coli; [8]) | MIC (E. coli; [9]) | MIC (S. pyogenes) | MIC [1] | MIC (M. smegmatis) | MIC (V. diabolicus) | IC50 [2] | IC50 [3] | therapeutic index Caco2 [3] | IC50 [4] | MIC (K. pneumonia) | MIC [5] | MIC [6] | MIC (A. baumannii) | MIC (L. lactis) | MIC (B. subtilis; [10]) | MIC (B. subtilis; [11]) | MIC (S. aureus; [12]) | MIC (P. aeruginosa; [14]) | MIC (C. albicans) | further results
COc1ccc2c(Cc3ccc(CI)cc3)c3[n+](cc2c1OC)CCc1cc2c(cc1-3)OCO2 [Compound 8, 13-(4-Iodomethylbenzyl)Berberine] | > 100 µM | > 100 µM | 12.5 µM | 12.5 µM | 25 µM | > 100 µM | 23.4 ± 4.5 µM | > 50 µM | 11.18 | > 50 µM | > 100 µM | 12.5 µM | > 100 µM | > 100 µM | 3.12 to 6.25 µM | 6.25 µM | 6.25 µM | 6.25 µM | > 100 µM | 50 µM | MIC (H. pylori): 6.25 µM; MIC (A. gandavensis): 3.12 µM; MIC (C. perfringens): 100 µM; MIC (S. aureus; [13]): 6.25 µM; MIC [7]: 50 µM; MIC (V. alginolyticus): 6.25 µM; MIC (P. aeruginosa; [15]): > 100 µM; MIC (S. flexneri): 50 µM; MIC (C. rodentium): > 100 µM; MIC (B. cereus): 12.5 µM; MIC (C. farmer): > 100 µM; MIC (S. enterica): > 100 µM; MIC (C. difficile): 100 µM
COc1ccc(Cc2c3[n+](cc4c(OC)c(OC)ccc24)CCc2cc4c(cc2-3)OCO4)c(OC)c1OC [Compound 14, 13[(2,3,4-Trimethoxyphenyl)methyl]Berberine] | > 100 µM |  |  |  | 25 µM |  | > 50 µM | > 50 µM |  | > 50 µM |  |  |  |  |  | 50 µM |  | 25 µM | > 100 µM | > 100 µM | 
COc1ccc2c(CC(=O)c3ccc(OC(=O)c4ccccc4)cc3OC(=O)c3ccccc3)c3[n+](cc2c1OC)CCc1cc2c(cc1-3)OCO2 [Compound 17, 4-[2-(Berberin-13-yl)acetyl]-3-(benzoyloxy)phenyl Benzoate] | > 100 µM | > 100 µM | 25 µM | 25 µM | 100 µM | > 100 µM | 42.4 ± 9.8 µM | > 50 µM | 8.54 | > 50 µM | > 100 µM | 12.5 to 25 µM | > 100 µM | > 100 µM | 3.12 to 6.25 µM | 12.5 µM | 12.5 µM | 6.25 to 12.5 µM | > 100 µM | 25 µM | MIC (H. pylori): 6.25 to 12.5 µM; MIC (A. gandavensis): 12.5 µM; MIC (C. perfringens): 50 µM; MIC (S. aureus; [13]): 6.25 µM; MIC [7]: 25 µM; MIC (V. alginolyticus): 1.5 to 3.12 µM; MIC (P. aeruginosa; [15]): > 100 µM; MIC (S. flexneri): > 100 µM; MIC (C. rodentium): > 100 µM; MIC (B. cereus): 25 µM; MIC (C. farmer): > 100 µM; MIC (S. enterica): > 100 µM; MIC (C. difficile): 100 µM
COc1ccc2c(Cc3ccc(-c4nc5ccccc5s4)cc3)c3[n+](cc2c1OC)CCc1cc2c(cc1-3)OCO2 [Compound 19] | > 100 µM |  |  |  | 12.5 µM |  | 4.92 ± 0.6 µM | 12 ± 1.3 µM |  | 31.2 ± 7.1 µM |  |  |  |  |  | 1.5 µM |  | 1.5 to 3.12 µM | > 100 µM | 6.25 µM | 
COc1ccc2c(Cc3ccc(/C=C/C(=O)NCCc4ccc(S(N)(=O)=O)cc4)cc3)c3[n+](cc2c1OC)CCc1cc2c(cc1-3)OCO2 [Compound 23, (2E)-3-{4-[(Berberin-13-yl)methyl]phenyl}-N-[2-(4-sulfamoylphenyl)ethyl]prop-2-enamide] | > 100 µM | > 100 µM | 6.25 µM | 12.5 µM | 25 µM | > 100 µM | > 50 µM | > 50 µM | 12.40 | > 50 µM | > 100 µM | 25 µM | > 100 µM | > 100 µM | 6.25 µM | 25 µM | 25 µM | 6.25 µM | > 100 µM | 100 µM | MIC (H. pylori): 6.25 µM; MIC (A. gandavensis): 50 µM; MIC (C. perfringens): 50 µM; MIC (S. aureus; [13]): 6.25 µM; MIC [7]: 100 µM; MIC (V. alginolyticus): 6.25 µM; MIC (P. aeruginosa; [15]): > 100 µM; MIC (S. flexneri): > 100 µM; MIC (C. rodentium): > 100 µM; MIC (B. cereus): 12.5 µM; MIC (C. farmer): > 100 µM; MIC (S. enterica): > 100 µM; MIC (C. difficile): 50 µM
COc1ccc2c(=O)cc(-c3ccc(Cc4c5[n+](cc6c(OC)c(OC)ccc46)CCc4cc6c(cc4-5)OCO6)cc3)oc2c1 [Compound 26, 2-{4-[(Berberin-13-yl)methyl]phenyl}-7-methoxy-4H-chromen-4-one] | > 100 µM | > 100 µM | 25 µM | 25 µM | 50 µM | > 100 µM | > 50 µM | > 50 µM | 20.24 | > 50 µM | > 100 µM | 50 µM | > 100 µM | > 100 µM | 6.25 to 12.5 µM | 50 µM | 50 µM | 12.5 µM | > 100 µM | 100 µM | MIC (H. pylori): 50 µM; MIC (A. gandavensis): 12.5 µM; MIC (C. perfringens): > 100 µM; MIC (S. aureus; [13]): 12.5 µM; MIC [7]: > 100 µM; MIC (V. alginolyticus): 50 µM; MIC (P. aeruginosa; [15]): > 100 µM; MIC (S. flexneri): > 100 µM; MIC (C. rodentium): > 100 µM; MIC (B. cereus): 50 µM; MIC (C. farmer): > 100 µM; MIC (S. enterica): > 100 µM; MIC (C. difficile): > 100 µM
